Where “and” joins values, the source holds several entries; their conditions need not be identical. Equal values may be shown once.
What was measured:
[1] = for kinematic viscosity / mass density: 101.33 kPa, Liquid; for kinematic viscosity: Capillary tube (Ostwald / Ubbelohde) method; for mass density: Vibrating tube method; for Normal melting temperature: Crystal, visual observation
[2] = refractive index (Na D-line) (dimensionless); conditions: 101.33 kPa, Liquid, Standard Abbe refractometry

CO [methanol]
Conditions | kinematic viscosity, [1] [m2/s] | mass density, [1] | refractive index, [2]
288.15 K | 7.51e-07 | 796.5 kg/m3 | 1.3306
293.15 K | 7.03e-07 | 791.46 kg/m3 | 1.3285
298.15 K | 6.6e-07 | 786.59 kg/m3 and 786.69 kg/m3 | 1.3265
303.15 K | 6.21e-07 | 782.03 kg/m3 | 1.3245
308.15 K | 5.79e-07 | 777.29 kg/m3 | 1.3227
313.15 K | 5.49e-07 | 772.51 kg/m3 | 1.3208
318.15 K | 5.19e-07 | 767.69 kg/m3 | 1.3188

Conditions | Normal melting temperature [°C]
[1] | -98.00

COc1ccccc1 [anisole]
Conditions | kinematic viscosity, [1] [m2/s] | mass density, [1] | refractive index, [2]
288.15 K | 1.123e-06 | 996.56 kg/m3 | 1.5198
293.15 K | 1.041e-06 | 991.95 kg/m3 | 1.5169
298.15 K | 9.71e-07 | 989.42 kg/m3 and 989.09 kg/m3 | 1.5143
303.15 K | 8.99e-07 | 983.04 kg/m3 | 1.5117
308.15 K | 8.39e-07 | 978.34 kg/m3 | 1.5092
313.15 K | 7.89e-07 | 973.62 kg/m3 | 1.5063
318.15 K | 7.4e-07 | 969.99 kg/m3 | 1.5041

O=C(Oc1ccccc1)Oc1ccccc1 [diphenyl carbonate]
Conditions | mass density [kg/m3]
[1], 358.15 K | 1113.12

Conditions | Normal melting temperature
[1] | 80.81 °C and 81.81 °C

COC(=O)Oc1ccccc1 [methyl phenyl carbonate]
Conditions | kinematic viscosity, [1] [m2/s] | mass density, [1] | refractive index, [2]
288.15 K | 5.143e-06 | 1153.93 kg/m3 | 1.4991
293.15 K | 4.275e-06 | 1148.74 kg/m3 | 1.4965
298.15 K | 3.665e-06 | 1143.24 kg/m3 and 1143.63 kg/m3 | 1.4942
303.15 K | 3.196e-06 | 1138.41 kg/m3 | 1.492
308.15 K | 2.816e-06 | 1133.26 kg/m3 | 1.4896
313.15 K | 2.486e-06 | 1128.11 kg/m3 | 1.4873
318.15 K | 2.235e-06 | 1122.97 kg/m3 | 1.4853

Conditions | Normal melting temperature [°C]
[1] | -31.00

COC(=O)OC [dimethyl carbonate]
Conditions | kinematic viscosity, [1] [m2/s] | mass density, [1] [kg/m3] | refractive index, [2]
288.15 K | 6.05e-07 | 1077.16 | 1.371
293.15 K | 5.7e-07 | 1070.18 | 1.3688
298.15 K | 5.41e-07 | 1063.26 | 1.3664
303.15 K | 5.08e-07 | 1056.23 | 1.364
308.15 K | 4.76e-07 | 1049.85 | 1.3618
313.15 K | 4.56e-07 | 1043.04 | 1.3595
318.15 K | 4.33e-07 | 1036.51 | 1.357

Conditions | Normal melting temperature [°C]
[1] | 5.01

Oc1ccccc1 [phenol]
Conditions | mass density [kg/m3]
[1], 313.15 K | 1058.51

Conditions | Normal melting temperature [°C]
[1] | 40.90
